Source: paper PMC11557314 (Frontiers in Pharmacology, 2024)
Where no end group is shown, it is not given here.

Target: hDOPr (Homo sapiens, UniProt P41143)
Assay: [35S]GTPγS functional assay on hDOPr-CHO cell membranes
Format: biochemical
Conditions: Table 3, mean ± SEM; for hDOPr % stim, stimulation of [35S]GTPγS binding: normalized to DynA; for EC50: read-out: hDOPr EC50, stimulation of [35S]GTPγS binding
Method: CHO cells stably transfected with human KOPr, MOPr, and DOPr (hKOPr-CHO, hMOPr-CHO, and hDOPr-CHO, respectively) were provided by Prof. Liu-Chen (Temple University, Philadelphia, United States). The cells were grown in Gibco™ Dulbecco’s minimal essential medium (DMEM) for hKOPr-CHO or Gibco™ DMEM/F-12 for hMOPr and hDOPr. Both media were supplemented with 10% FBS (Gibco™), GlutaMAX (100 μg/mL; Gibco™), penicillin/streptomycin (100 μg/mL; Gibco™), and geneticin (G418, 400 μg/mL; Gibco™). HEK 293 cells were grown in high-glucose DMEM supplemented with 10% FBS (Gibco™), GlutaMAX (100 μg/mL; Gibco™), and penicillin/streptomycin (100 μg/mL; Gibco™). Cell cultures were maintained in a Heracell™ 150i CO2 incubator at 37°C and 5.0% CO2.
Functional assays were conducted on hKOPr-CHO, hMOPr-CHO, and hDOPr-CHO cell membranes (see above). The membranes were prepared in a buffer containing 20 mM HEPES, 10 μM GDP, cell membrane (10–30 μg), and 0.05 nM [^35S]GTPγS. The buffer containing the cell membranes was incubated with an increasing concentration of the test peptide diluted in 1 × HEPES, pH 7.4, in a total volume of 1 mL, for 60 min at 25°C. The peptide solutions were replaced by diluents for untreated controls. Non-specific binding was determined using unlabeled 10 μM GTPγS. Samples were rapidly washed three times with Tris-HCl and filtered through glass fiber filters (GF/B Whatman). The bound radioactivity was measured by liquid scintillation (Carl Roth GmbH, Karlsruhe, Germany) counting on a Packard 1600 TR Tri-Carb Beta counter (Canberra, Belgium).

Chain of hDOPr (P41143 whole entry): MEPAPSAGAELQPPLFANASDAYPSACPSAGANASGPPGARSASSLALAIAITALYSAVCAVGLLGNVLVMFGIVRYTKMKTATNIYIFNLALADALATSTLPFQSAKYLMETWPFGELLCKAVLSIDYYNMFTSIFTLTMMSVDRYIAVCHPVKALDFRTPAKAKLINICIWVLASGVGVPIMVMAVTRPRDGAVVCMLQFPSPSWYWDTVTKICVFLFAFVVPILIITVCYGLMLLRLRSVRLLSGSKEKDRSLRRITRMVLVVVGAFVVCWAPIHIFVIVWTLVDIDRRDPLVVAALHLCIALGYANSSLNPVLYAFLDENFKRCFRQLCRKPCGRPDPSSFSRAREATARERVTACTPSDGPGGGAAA

Row | Sequence | hDOPr % stim, stimulation of [35S]GTPγS binding | EC50
1 | YGAFLRRAFKVVT [DynB_G3A/Q8A] | 86.4 ± 10.3% | 1230 nM
2 | YGGFSRRQFKVVT [DynB_L5S] | 86.7 ± 9.2% | 310 ± 50.4 nM
